Reference: patent publication US11661403B2, “Oxadiazole compounds” (Vivace Therapeutics, Inc., priority 2018, dated 2023)

System: 8XTBD luciferase reporter (YAP) in HEK293T cells
Test: YAP Reporter Assay
Format: cell-based
Conditions: Homo sapiens, HEK-293T; HEK293T cells stably transfected with 8XTBD luciferase reporter and pRLTK; 24-hr incubation; top concentration 3 μM; read-out: Firefly Luciferase IC50

Question: How did the IC50 turn out when `C=Cc1nnc(-c2ccccc2Nc2ccc(C(F)(F)F)cc2)o1` [Compound 123, N-(4-(trifluoromethyl)phenyl)-2-(5-vinyl-1,3,4-oxadiazol-2-yl)aniline] was run?
Answer: < 100 nM

Question: How did the IC50 turn out when `CN(C#N)CC(C)(C)c1nnc(-c2ccccc2Nc2ccc(C(F)(F)F)cc2)o1` [Compound 146, N-methyl-N-(2-methyl-2-(5-(2-((4-(trifluoromethyl)phenyl)amino)phenyl)-1,3,4-oxadiazol-2-yl)propyl)cyanamide] was run?
Answer: < 100 nM

Question: For `NC(=O)C1(c2nnc(-c3ccccc3Nc3ccc(C(F)(F)F)cc3)o2)CC1` [Compound 187, 1-(5-(2-((4-(trifluoromethyl)phenyl)amino)phenyl)-1,3,4-oxadiazol-2-yl)cyclopropane-1-carboxamide], which IC50 is on record?
Answer: < 100 nM

Question: With `CC(C)(c1nnc(-c2ccccc2Nc2ccc(C(F)(F)F)cc2)o1)S(C)(=O)=O` [Compound 163, 2-(5-(2-(methylsulfonyl)propan-2-yl)-1,3,4-oxadiazol-2-yl)-N-(4-(trifluoromethyl)phenyl)aniline] as the compound, how does the IC50 read?
Answer: 100 to 1000 nM

Question: How did the IC50 turn out when `CN(C#N)CCCc1nnc(-c2ccccc2Nc2ccc(C(F)(F)F)cc2)o1` [Compound 129, N-methyl-N-(3-(5-(2-((4-(trifluoromethyl)phenyl)amino)phenyl)-1,3,4-oxadiazol-2-yl)propyl)cyanamide] was run?
Answer: < 100 nM

Question: Which IC50 does the source give for `Cc1ocnc1-c1nnc(-c2ccccc2Nc2ccc(C(F)(F)F)cc2)o1` [Compound 35, 2-(5-(5-methyloxazol-4-yl)-1,3,4-oxadiazol-2-yl)-N-(4-(trifluoromethyl)phenyl) aniline] here?
Answer: 100 to 1000 nM

Question: For `OC1(c2nnc(-c3ccccc3Nc3ccc(C(F)(F)F)cc3)o2)COC1` [Compound 55, 3-(5-(2-((4-(trifluoromethyl)phenyl)amino)phenyl)-1,3,4-oxadiazol-2-yl)oxetan-3-ol], which IC50 is on record?
Answer: < 100 nM

Question: How did the IC50 turn out when `OC(c1nnc(-c2ccccc2Nc2ccc(C(F)(F)F)cc2)o1)C(F)(F)F` (stereo not shown) [Compound 51, 2,2,2-trifluoro-1-(5-(2-((4-(trifluoromethyl)phenyl)amino)phenyl)-1,3,4-oxadiazol-2-yl)ethanol] was run?
Answer: < 100 nM

Question: `C=CC(=O)NCc1nnc(-c2ccccc2Nc2ccc(C(F)(F)F)cc2)o1` [Compound 108, N-((5-(2-((4-(trifluoromethyl)phenyl)amino)phenyl)-1,3,4-oxadiazol-2-yl)methyl)acrylamide] was tested. Which IC50 did it give?
Answer: < 100 nM

Question: `CC(C)NCc1nnc(-c2ccccc2Nc2ccc(C(F)(F)F)cc2)o1` [Compound 97, 2-(5-((isopropylamino)methyl)-1,3,4-oxadiazol-2-yl)-N-(4-(trifluoromethyl)phenyl)aniline] was tested. Which IC50 did it give?
Answer: 1000 to 5000 nM

Question: With `[N-]=[N+]=NCc1nnc(-c2ccccc2Nc2ccc(C(F)(F)F)cc2)o1` [Compound 31, 2-[5-(azidomethyl)-1,3,4-oxadiazol-2-yl]-N-[4-(trifluoromethyl)phenyl]aniline] as the compound, how does the IC50 read?
Answer: 100 to 1000 nM

Question: For `CNc1nnc(-c2ccccc2Nc2ccc(C(F)(F)F)cc2)o1` [Compound 12, N-methyl-5-(2-((4-(trifluoromethyl)phenyl)amino)phenyl)-1,3,4-oxadiazol-2-amine], which IC50 is on record?
Answer: 100 to 1000 nM

Question: How did the IC50 turn out when `CCN(C#N)Cc1nnc(-c2ccccc2Nc2ccc(C(F)(F)F)cc2)o1` [Compound 102, N-ethyl-N-((5-(2-((4-(trifluoromethyl)phenyl)amino)phenyl)-1,3,4-oxadiazol-2-yl)methyl)cyanamide] was run?
Answer: < 100 nM

Question: Which IC50 does the source give for `FC(F)(F)c1ccc(Nc2ccccc2-c2nnco2)cc1` [Compound 20, 2-(1,3,4-oxadiazol-2-yl)-N-[4-(trifluoromethyl)phenyl]aniline] here?
Answer: 100 to 1000 nM

Question: With `CC(C)(C)OC(=O)NC1(c2nnc(-c3ccccc3Nc3ccc(C(F)(F)F)cc3)o2)CC1` [Compound 57, Tert-Butyl (1-(5-(2-((4-(trifluoromethyl)phenyl)amino)phenyl)-1,3,4-oxadiazol-2-yl)cyclopropyl)carbamate] as the compound, how does the IC50 read?
Answer: 100 to 1000 nM

Question: `FC(F)(F)c1ccc(Nc2ccc(Br)cc2-c2nnc(C3CC3)o2)cc1` [Compound 204, 4-bromo-2-(5-cyclopropyl-1,3,4-oxadiazol-2-yl)-N-(4-(trifluoromethyl)phenyl)aniline] was tested. Which IC50 did it give?
Answer: 100 to 1000 nM

Question: Which IC50 does the source give for `CC(C)(C(=O)O)c1nnc(-c2ccccc2Nc2ccc(C(F)(F)F)cc2)o1` [Compound 103, 2-methyl-2-(5-(2-((4-(trifluoromethyl)phenyl)amino)phenyl)-1,3,4-oxadiazol-2-yl)propanoic Acid] here?
Answer: 100 to 1000 nM

Question: Which IC50 does the source give for `CON(C)C(=O)c1nnc(-c2ccccc2Nc2ccc(C(F)(F)F)cc2)o1` [Compound 192, N-methoxy-N-methyl-5-(2-((4-(trifluoromethyl)phenyl)amino)phenyl)-1,3,4-oxadiazole-2-carboxamide] here?
Answer: 100 to 1000 nM

Question: Which IC50 does the source give for `NCCc1nnc(-c2ccccc2Nc2ccc(C(F)(F)F)cc2)o1` [Compound 104, 2-(5-(2-aminoethyl)-1,3,4-oxadiazol-2-yl)-N-(4-(trifluoromethyl)phenyl)aniline] here?
Answer: 1000 to 5000 nM

Question: For `CNC(=O)C1(c2nnc(-c3ccccc3Nc3ccc(C(F)(F)F)cc3)o2)CC1` [Compound 186, N-methyl-1-(5-(2-((4-(trifluoromethyl)phenyl)amino)phenyl)-1,3,4-oxadiazol-2-yl)cyclopropane-1-carboxamide], which IC50 is on record?
Answer: 100 to 1000 nM

Question: For `OCC1(c2nnc(-c3ccccc3Nc3ccc(C(F)(F)F)cc3)o2)CC1` [Compound 47, (1-(5-(2-((4-(trifluoromethyl)phenyl)amino)phenyl)-1,3,4-oxadiazol-2-yl)cyclopropyl)methanol], which IC50 is on record?
Answer: < 100 nM

Question: `OCc1nnc(-c2ccccc2Nc2ccc(C(F)(F)F)cc2)o1` [Compound 5, (5-(2-((4-(trifluoromethyl)phenyl)amino)phenyl)-1,3,4-oxadiazol-2-yl)methanol] was tested. Which IC50 did it give?
Answer: < 100 nM

Question: With `OC(CF)c1nnc(-c2ccccc2Nc2ccc(C(F)(F)F)cc2)o1` (stereo not shown) [Compound 203, 2-fluoro-1-(5-(2-((4-(trifluoromethyl)phenyl)amino)phenyl)-1,3,4-oxadiazol-2-yl)ethan-1-ol] as the compound, how does the IC50 read?
Answer: < 100 nM

Question: `C=C(C)c1nnc(-c2ccccc2Nc2ccc(C(F)(F)F)cc2)o1` [Compound 133, 2-(5-(prop-1-en-2-yl)-1,3,4-oxadiazol-2-yl)-N-(4-(trifluoromethyl)phenyl)aniline] was tested. Which IC50 did it give?
Answer: 100 to 1000 nM

Question: How did the IC50 turn out when `C#CCNC(=O)c1nnc(-c2ccccc2Nc2ccc(C(F)(F)F)cc2)o1` [Compound 116, N-(prop-2-yn-1-yl)-5-(2-((4-(trifluoromethyl)phenyl)amino)phenyl)-1,3,4-oxadiazole-2-carboxamide] was run?
Answer: < 100 nM

Question: How did the IC50 turn out when `CNCCc1nnc(-c2ccccc2Nc2ccc(C(F)(F)F)cc2)o1` [Compound 172, 2-(5-(2-(methylamino)ethyl)-1,3,4-oxadiazol-2-yl)-N-(4-(trifluoromethyl)phenyl)aniline] was run?
Answer: 1000 to 5000 nM

Question: For `FC(F)(F)c1ccc(Nc2ccccc2-c2nnc(C3(F)CC3)o2)cc1` [Compound 63, 2-(5-(1-fluorocyclopropyl)-1,3,4-oxadiazol-2-yl)-N-(4-(trifluoromethyl)phenyl) aniline], which IC50 is on record?
Answer: 1000 to 5000 nM

Question: With `CC(=O)OC(CO)c1nnc(-c2ccccc2Nc2ccc(C(F)(F)F)cc2)o1` (stereo not shown) [Compound 202, 2-hydroxy-1-(5-(2-((4-(trifluoromethyl)phenyl)amino)phenyl)-1,3,4-oxadiazol-2-yl)ethyl acetate] as the compound, how does the IC50 read?
Answer: < 100 nM

Question: How did the IC50 turn out when `CCN(C#N)CCc1nnc(-c2ccccc2Nc2ccc(C(F)(F)F)cc2)o1` [Compound 96, N-ethyl-N-(2-(5-(2-((4-(trifluoromethyl)phenyl)amino)phenyl)-1,3,4-oxadiazol-2-yl)ethyl)cyanamide] was run?
Answer: < 100 nM

Question: `NC(=O)c1nnc(-c2ccccc2Nc2ccc(C(F)(F)F)cc2)o1` [Compound 15, 5-(2-((4-(trifluoromethyl)phenyl)amino)phenyl)-1,3,4-oxadiazole-2-carboxamide] was tested. Which IC50 did it give?
Answer: < 100 nM

Question: With `FC(F)(F)c1ccc(Nc2ccccc2-c2nnc(C3CCO3)o2)cc1` (stereo not shown) [Compound 182, 2-(5-(oxetan-2-yl)-1,3,4-oxadiazol-2-yl)-N-(4-(trifluoromethyl)phenyl)aniline] as the compound, how does the IC50 read?
Answer: < 100 nM

Question: With `CC(CO)NC(=O)c1nnc(-c2ccccc2Nc2ccc(C(F)(F)F)cc2)o1` (stereo not shown) [Compound 189, N-(1-hydroxypropan-2-yl)-5-(2-((4-(trifluoromethyl)phenyl)amino)phenyl)-1,3,4-oxadiazole-2-carboxamide] as the compound, how does the IC50 read?
Answer: 100 to 1000 nM

Question: Which IC50 does the source give for `C#CC(O)Cc1nnc(-c2ccccc2Nc2ccc(C(F)(F)F)cc2)o1` (stereo not shown) [Compound 120, 1-(5-(2-((4-(trifluoromethyl)phenyl)amino)phenyl)-1,3,4-oxadiazol-2-yl)but-3-yn-2-ol] here?
Answer: < 100 nM

Question: Which IC50 does the source give for `N#CC1(c2nnc(-c3ccccc3Nc3ccc(C(F)(F)F)cc3)o2)CC1` [Compound 184, 1-(5-(2-((4-(trifluoromethyl)phenyl)amino)phenyl)-1,3,4-oxadiazol-2-yl)cyclopropane-1-carbonitrile] here?
Answer: < 100 nM

Question: For `FC(F)(F)c1ccc(Nc2ccccc2-c2nnc(C3CCNC3)o2)cc1` (stereo not shown) [Compound 175, 2-(5-(pyrrolidin-3-yl)-1,3,4-oxadiazol-2-yl)-N-(4-(trifluoromethyl)phenyl)aniline], which IC50 is on record?
Answer: 100 to 1000 nM

Question: For `FC(F)(F)c1ccc(Nc2ccccc2-c2nnc(-c3cnco3)o2)cc1` [Compound 37, 2-(5-(oxazol-5-yl)-1,3,4-oxadiazol-2-yl)-N-(4-(trifluoromethyl)phenyl)aniline], which IC50 is on record?
Answer: 100 to 1000 nM

Question: `O=C(NCCO)c1nnc(-c2ccccc2Nc2ccc(C(F)(F)F)cc2)o1` [Compound 191, N-(2-hydroxyethyl)-5-(2-((4-(trifluoromethyl)phenyl)amino)phenyl)-1,3,4-oxadiazole-2-carboxamide] was tested. Which IC50 did it give?
Answer: < 100 nM

Same assay, conditions: Homo sapiens, HEK-293T; […]; 24-hr incubation; top concentration 3 μM; read-out: Firefly Luciferase IC50

Question: How did the IC50 turn out when `OC1(c2nnc(-c3ccccc3Nc3ccc(C(F)(F)F)cc3)o2)CCC1` [Compound 54, 1-(5-(2-((4-(trifluoromethyl)phenyl)amino)phenyl)-1,3,4-oxadiazol-2-yl)cyclo butanol] was run?
Answer: < 100 nM

Question: `CC#CCOc1nnc(-c2ccccc2Nc2ccc(C(F)(F)F)cc2)o1` [Compound 70, 2-(5-(but-2-yn-1-yloxy)-1,3,4-oxadiazol-2-yl)-N-(4-(trifluoromethyl)phenyl)aniline] was tested. Which IC50 did it give?
Answer: 1000 to 5000 nM

Question: `CC(C)NC(=O)c1nnc(-c2ccccc2Nc2ccc(C(F)(F)F)cc2)o1` [Compound 196, N-isopropyl-5-(2-((4-(trifluoromethyl)phenyl)amino)phenyl)-1,3,4-oxadiazole-2-carboxamide] was tested. Which IC50 did it give?
Answer: 100 to 1000 nM
